According to a melting point compilation (Tetko et al.):

Row | Structure (SMILES) | melting point [°C]
1 | CCN1C(=C2C=NN(C)C2=N)Nc2ccccc21 | 111 to 113
2 | Cc1nc2ccccn2c1P(c1ccccc1)c1ccccc1 | 98 to 100
3 | Cc1nn(-c2ccc(F)cc2)c(C)c1C=O | 128 to 130
4 | O=c1[nH]c2ccc(NCc3ccccc3Cl)cc2[nH]1 | 227 to 229
5 | CC(C)c1nc(N)no1 | 39 to 41
6 | O=C(O)CSCc1cscn1 | 98 to 100
7 | CS(=O)(=O)c1cccc(C(=O)c2ccccc2)c1 | 86 to 88
8 | Cc1sc2nc(Cn3cnc([N+](=O)[O-])c3)nc(Cl)c2c1C | 185 to 187
9 | COc1ccc(NCCC(=O)O)cc1 | 82 to 84
10 | NS(=O)(=O)CC1CCC1 | 97 to 99
11 | O=C(O)c1cccnc1SCc1cccc(Br)c1 | 186 to 188
12 | Nc1cccc(NC(=O)c2cccnc2)c1 | 155 to 157
13 | Cc1ccn2c(=O)c(C(=O)O)cnc2c1 | 241 to 243
14 | CCCC(C)(N)C(=O)O (stereo not drawn) | 269 to 271
15 | O=C(NCc1ccccn1)OCC(F)(F)F | 50 to 52
16 | O=C1CCNc2ncccc2N1 | 263 to 265
17 | COc1ccc(-c2cc(N)n(-c3cccc(C)c3)n2)cc1 | 125 to 127
18 | CC(C)CC(=O)Nc1ccc(C(=O)O)cc1F | 257 to 259
19 | Nc1cccnn1 | 169 to 171
20 | N#Cc1ccc(NCCN)nc1 | 103 to 105
21 | NC(=O)c1cnn(-c2ncccn2)c1N | 256 to 258
22 | CNCc1nc(-c2ccccc2)c[nH]1 | 117 to 119
23 | NCc1cccc(S(=O)(=O)NCc2cccc(F)c2)c1 | 101 to 103
24 | Cc1nccc(CN)n1 | 8 to 10

Row | Structure (SMILES) | melting point [°C]
25 | CC(C)(C)OC(=O)Nc1cnsn1 | 93 to 95
26 | ClCc1csc(COc2ccccc2)n1 | 49 to 51
27 | c1cc2c(cn1)NCCN2 | 135 to 137
28 | CC1CCCC(NC(=O)NC(=O)CCl)C1C (stereo not drawn) | 131 to 133
29 | CC1C(=O)NCCN1C(=O)c1ccco1 (stereo not drawn) | 149 to 151
30 | O=C(O)c1cc(Cl)ccc1I | 162 to 164
31 | N#Cc1ccc2c(c1)CC(=O)N2 | 249 to 251
32 | CC(=O)c1ccc(O)c(CN2CCOCC2)c1 | 70 to 72
33 | Cc1n[nH]c(=O)c(C(=O)O)c1C | 179 to 181
34 | COc1cc(CCc2cc(N)n[nH]2)cc(OC)c1 | 107 to 109
35 | O=C(O)c1cc(-c2ccc(Cl)s2)on1 | 169 to 171
36 | Nc1ccccc1C(O)C(F)(F)F (stereo not drawn) | 119 to 121
37 | O=C(O)c1ccccc1N1CCCC1 | 87 to 89
38 | NCC1(O)Cc2ccccc2C1 | 64 to 66
39 | CC(C)(C)c1nc(CC(=O)O)cs1 | 94 to 96
40 | Nc1cc(-c2ccc(OC(F)F)cc2)no1 | 88 to 90
41 | Nc1nonc1-c1ccc(Cl)c(Cl)c1 | 143 to 145
42 | O=C(O)c1cc(S(=O)(=O)NC2CC2)ccc1Br | 221 to 223
43 | COc1cc(OC)c(S(=O)(=O)Cl)cc1S(=O)(=O)Cl | 139 to 141
44 | CCOC(=O)c1cnn(CCC#N)c1 | 87 to 89
45 | NC(Cc1c[nH]c2ccc([N+](=O)[O-])cc12)C(=O)O (stereo not drawn) | 259 to 261
46 | Cc1ccc(S(=O)(=O)Nc2ccc(C(=O)O)cc2)cc1C | 219 to 221
47 | O=C(O)c1ccc(CN(Cc2ccccc2)S(=O)(=O)c2ccc(Cl)cc2)cc1 | 203 to 205
48 | CCOC(=O)C1CCN(C(=O)c2ccccc2)CC1 | 84 to 86

Row | Structure (SMILES) | melting point [°C]
49 | O=C(O)c1sccc1S(=O)(=O)N1CCC(O)CC1 | 219 to 221
50 | COc1c(C)cnc(Cn2ccc(N)n2)c1C | 59 to 61
51 | O=C(O)c1cc(Cl)ccc1Sc1ccc(Cl)cc1 | 158 to 160
52 | Nc1nonc1C(=O)N1CCOCC1 | 136 to 138
53 | c1ccc(COc2ccc3ncccc3c2)cc1 | 73 to 75
54 | CCn1c(SCC(=O)O)nnc1-c1cccs1 | 157 to 159
55 | N#Cc1cc(-c2ccccc2)c(-c2ccccc2)nc1Cl | 129 to 131
56 | O=Cc1cc[nH]c1 | 59 to 61
57 | O=C(O)c1csc2cncn12 | 229 to 231
58 | COc1c(Cl)cc(C(=O)O)cc1Cl | 152 to 154
59 | CC(C)CCNc1c(N)n(Cc2ccccc2)c(=O)[nH]c1=O | 203 to 205
60 | O=C(O)c1cc(-c2cccc(Cl)c2)on1 | 175 to 177
61 | CC(C)Oc1c(F)cc(N)cc1F | 60 to 62
62 | Cc1ccc(S(=O)(=O)N2CCCCC2)cc1C(=O)O | 197 to 199
63 | OCCNCc1cccc(OCc2ccccc2Cl)c1 | 49 to 50
64 | O=C(Nc1nnc(C2CC2)s1)OCC(F)(F)F | 197 to 199
65 | Brc1ccc(NCc2cccnc2)cc1 | 88 to 90
66 | CC1(c2cccc(C(N)=O)c2)NC(=O)NC1=O (stereo not drawn) | 225 to 227
67 | Nc1nonc1-c1ccc(F)cc1 | 125 to 127
68 | O=C(CCl)NCc1ccc(C(=O)N2CCCC2)cc1 | 128 to 130
69 | Cc1ccnc(Br)c1N | 76 to 78
70 | CS(=O)(=O)Nc1ccccc1Br | 79 to 81
71 | CCOc1ccc2nc(-c3ccc(N)cc3)sc2c1 | 203 to 205
72 | Clc1nc(-c2ccccc2)nc2scc(-c3ccccc3)c12 | 147 to 149

Row | Structure (SMILES) | melting point [°C]
73 | CN(C(N)=O)c1ccccc1 | 75 to 77
74 | Nc1ncc(Cc2ccc(Cl)cc2Cl)s1 | 109 to 111
75 | COc1ccccc1C(=O)c1ccccc1Cl | 59 to 61
76 | O=S1(=O)CCNC2CCCCC21 (stereo not drawn) | 75 to 77
77 | O=C(O)CN(CCCCCCN(CC(=O)O)CC(=O)O)CC(=O)O | 237 to 241
78 | CN(C)c1nc(=NN)cc[nH]1 | 144 to 146
79 | CC1=CC(=C2Nc3cc(F)ccc3N2C(C)C)C=CC1=N | 136 to 138
80 | O=C(O)c1ccc([N+](=O)[O-])cc1Br | 164 to 166
81 | COc1ccc(C)c(N)c1 | 43 to 46
82 | O=C(O)c1cnc(Cl)c([N+](=O)[O-])c1 | 126 to 128
83 | CCCN(CCC)C(=O)c1cccc(C(=O)O)c1 | 94 to 96
84 | Cc1cc(O)c([N+](=O)[O-])cc1S(=O)(=O)Cl | 63 to 65
85 | CC(C)Oc1ccc(C(=O)O)cc1N | 115 to 117
86 | Cc1ccn2c(CN3CCNCC3)c(C)nc2c1 | 97 to 99
87 | Sc1nnc(Nc2cccc(Cl)c2)s1 | 210 to 212
88 | NS(=O)(=O)CC(=O)O | 119 to 121
89 | O=C(CCCl)Nc1ccc(Cl)cc1 | 124 to 126
90 | CCC1(c2ccc(F)cc2)NC(=O)NC1=O (stereo not drawn) | 95 to 97
91 | CCN(CC)S(=O)(=O)CC(=O)O | 59 to 61
92 | N#Cc1c(N2CCOCC2)n[nH]c1N | 195 to 197
93 | Cc1cc(Cl)cc([N+](=O)[O-])c1I | 73 to 75
94 | NC(=S)c1ccc(Cl)c(Cl)c1 | 136 to 138
95 | Fc1cccc2ncnc(Cl)c12 | 139 to 141
96 | O=c1[nH]nc(-c2ccc(F)cc2)c2ccccc12 | 270 to 272

Row | Structure (SMILES) | melting point [°C]
97 | Cc1ccc(-n2nc(C)c(CC(=O)O)c2C)cc1Cl | 146 to 148
98 | CCOC(=O)C(NS(C)(=O)=O)C(=O)OCC | 72 to 74
99 | CS(=O)CCC(=O)O (stereo not drawn) | 57 to 59
100 | Cc1cc(N)n(C2CC3CCC2C3)n1 (stereo not drawn) | 59 to 61
101 | O=C(O)CC1(O)CCCC1 | 72 to 74
102 | O=C(O)CCNC(=O)c1ccc(Cl)cc1 | 167 to 169
103 | CCOC(=O)c1nn(-c2ccccc2)cc1/C=N/O | 111 to 113
104 | Cc1nn(C2CCS(=O)(=O)C2)c2ncc(C=O)cc12 (stereo not drawn) | 149 to 151
105 | CN(C)Cc1c(O)ccc2ccccc12 | 73 to 75
106 | O=C(O)CCn1cc([N+](=O)[O-])cn1 | 143 to 145
107 | NNC(=O)C(=O)N1CCCC1 | 117 to 119
108 | CCS(=O)(=O)c1cccc(C(=O)O)c1 | 160 to 162
109 | NNC(=O)Cn1ccc2ccccc21 | 176 to 178
110 | CC(C)c1nnc(N)[nH]1 | 108 to 110
111 | O=C(O)c1occc1Br | 155 to 157
112 | CCCC(NCCC(=O)Nc1cc(C)on1)C(=O)O (stereo not drawn) | 227 to 229
113 | COc1cc(NC(C)=O)c(C(=O)O)cc1OC | 229 to 231
114 | CC1CC(N)=NN1Cc1ccccc1 (stereo not drawn) | 159 to 161
115 | COC(=O)C1CN(CC#N)CCO1 (stereo not drawn) | 79 to 81
116 | CCc1c(C(=O)O)cnn1Cc1ccccc1 | 124 to 126
117 | Cc1cc(S(=O)(=O)Cl)cc(C)c1F | 88 to 90
118 | NC(=O)OCC(F)(F)F | 42 to 44
119 | O=C(NCc1ccc2c(c1)OCO2)n1ccnc1 | 108 to 110
120 | COCCOc1ccc(Cl)cc1S(=O)(=O)Cl | 38 to 40

Row | Structure (SMILES) | melting point [°C]
121 | COc1cc(C=C2CCCc3c2nc2ccccc2c3C(=O)O)cc(OC)c1OC | 249 to 251
122 | N#Cc1ccc(CSc2ccccc2C(=O)O)cc1 | 208 to 210
123 | CSc1[nH]c(=O)c(C(=O)O)cc1C#N | 254 to 256
124 | O=C(O)CCC(=O)Nc1sc2c(c1C(=O)NCC1CCCO1)CCCC2 (stereo not drawn) | 151 to 153
125 | Nc1nnc(C2CCCCC2)o1 | 222 to 224
126 | Cc1ccc2c(C)cc(NN)nc2c1C | 191 to 193
127 | O=C(Nc1ccc(-n2cncn2)nc1)OCC(F)(F)F | 192 to 194
128 | COc1cc(C(=O)O)ccc1OC(F)F | 171 to 173
129 | CCCn1cnc2c1c(=O)[nH]c(=O)n2C | 256 to 258
130 | CCOC(=O)c1cc2cc(N)ccc2s1 | 89 to 91
131 | O=Cc1ccc(Cl)c2cccnc12 | 132 to 134
132 | O=C1COc2ccc(Br)cc21 | 111 to 113
133 | CCNc1ccc(S(=O)(=O)C(F)(F)F)cc1 | 63 to 65
134 | O=C(O)CNc1cccc(Cl)c1 | 174 to 176
135 | CCC1(CC)CC(=O)NC1=O | 82 to 84
136 | CC(C)(C)S(=O)(=O)Cc1cccc(N)c1 | 175 to 177
137 | O=S(=O)(c1cccc2cnccc12)N1CCCNCC1 | 146 to 148
138 | COc1cccc(C(C)=CC(=O)O)c1 | 102 to 104
139 | Sc1nnc(-c2ccccc2)s1 | 199 to 201
140 | Cc1nn(C(C)(C)C)c2nc(C(C)C)cc(C(=O)O)c12 | 121 to 123
141 | O=C(O)c1cccnc1Nc1ccccc1F | 215 to 217
142 | CNS(=O)(=O)c1cccc(F)c1 | 58 to 60
143 | CC(C)NS(=O)(=O)c1ccc(Cl)c(C(=O)O)c1 | 147 to 149
